Experimental data as given in EP3138569B1, “COMPOSITION FOR EXTERNAL APPLICATION” (priority 2014, dated 2015).
Like-named read-outs stand apart in the source and are kept apart here.

Columns and labels:
tyrosinase = biological target: T1, tyrosinase (Homo sapiens, UniProt P14679); settings: for Tyrosinase enzyme activity (µg melanin/µg protein/h): 0.5 mM L-DOPA, 37 °C, 2 hours, n=5; for tyrosinase-inhibiting effect: Student's t-test
T1 sequence (P14679 19-529): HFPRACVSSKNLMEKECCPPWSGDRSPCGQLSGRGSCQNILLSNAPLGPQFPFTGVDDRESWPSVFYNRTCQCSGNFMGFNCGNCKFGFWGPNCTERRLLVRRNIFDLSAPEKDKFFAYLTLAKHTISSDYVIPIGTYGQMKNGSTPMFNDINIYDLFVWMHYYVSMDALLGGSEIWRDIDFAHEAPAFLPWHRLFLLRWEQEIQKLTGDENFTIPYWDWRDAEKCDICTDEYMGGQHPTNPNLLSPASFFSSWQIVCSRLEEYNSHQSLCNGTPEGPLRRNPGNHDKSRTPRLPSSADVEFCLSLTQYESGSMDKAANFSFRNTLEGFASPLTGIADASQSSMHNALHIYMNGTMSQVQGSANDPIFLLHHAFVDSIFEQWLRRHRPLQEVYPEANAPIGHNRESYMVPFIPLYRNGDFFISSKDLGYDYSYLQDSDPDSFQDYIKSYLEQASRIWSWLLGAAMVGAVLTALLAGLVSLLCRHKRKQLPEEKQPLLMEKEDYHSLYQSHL

[1] = tested on: Normal human epidermal fibroblasts; assay: Evaluation of fibroblast-activating effect (MTT, blue formazan); type: cell-based; settings: for activity at 0.313 % / activity at 0.625 % / activity at 1.25 % / activity at 2.5 % / activity at 5 %: Homo sapiens, Fibroblast, 48 h, blue formazan relative to non-treated cells = 100, n=4, read-out: Index (%); for activity at 0.313 %: 0.313 w/v%; for activity at 0.625 %: 0.625 w/v%; for activity at 1.25 %: 1.250 w/v%; for activity at 2.5 %: 2.500 w/v%; for activity at 5 %: 5.000 w/v%; for fibroblast-activating effect: Student's t-test
Experimental: Normal human epidermal fibroblasts suspended in a DMEM medium containing a 5% calf serum (FBS) were inoculated in a 96-well plate at a density of 2.0 x 10^4 cells per well. After 24 hours of the inoculation, the medium was exchanged with a 1% calf serum (FBS) -containing DMEM medium (each test solution) which contained trehalulose, isomaltulose, or reduced isomaltulose at the concentrations shown in Table 1 (i.e., each six types of concentrations including 0.000 w/v %). […] Also, 5% FBS-containing DMEM media were used as positive controls (P.C.). After culturing for 48 hours, the medium was exchanged with a 1% FBS-containing DMEM medium which contained 0.4 mg/mL of 3-(4,5-dimethylthiazol-2-yl)-2,5-diphenyltetrazolium bromide (MTT) and cultured for 2 hours. The medium was removed, and when 2-propanol was added, blue formazan generated was extracted. Absorbance of the extract at 550 nm was measured to obtain the amount of blue formazan.

[2] = tested on: Normal human epidermal fibroblasts; assay: Evaluation of reducing effect of oxidative stress induced cell damage (UVB 20 mJ/cm^2, Neutral Red); type: cell-based
Experimental: (§1) When cells are irradiated with UVB, reactive oxygen species (such as a superoxide anion radical, hydrogen peroxide, and a hydroxyl radical) generate. The viability of cells obtained when the cells were irradiated with UVB was used as index to evaluate the reducing effect of the oxidative stress induced cell damage.
(§2) Normal human epidermal fibroblasts suspended in a KG2 medium were inoculated in a 96-well plate at a density of 2.0 x 10^4 cells per well. After 24 hours of the inoculation, the medium was exchanged with a KG2 medium (each test solution) which contained trehalulose or reduced isomaltulose at the concentrations shown in Table 2 (i.e., each six types of concentrations including 0.000 w/v %) and cultured for 24 hours. […] Also, groups that were not irradiated with UVB were provided as control groups. After culturing, the medium was exchanged with a KB2 medium containing 33 µg/mL of Neutral Red (NR) and was cultured for 2 hours. After culturing, the cells were washed with PBS, and NR captured within the cells was extracted with a 0.1M HCl solution containing 30% (v/v) ethanol. Absorbance of the extract at 550 nm was measured.

[3] = tested on: Normal human epidermal fibroblasts; assay: Evaluation of reducing effect of oxidative stress induced cell damage (UVB 25 mJ/cm^2, Neutral Red); type: cell-based
Experimental: as §1, §2
Except that the each test solution was changed to a KG2 medium which contained isomaltulose at the concentrations shown in Table 4 (i.e., six types of concentrations including 0.000 w/v %) and that the irradiation intensity of UVB was changed to 25 mJ/cm^2, the reducing effect of the oxidative stress induced cell damage was evaluated according to the same procedure as in Example 2.

SMILES | Tyrosinase enzyme activity (µg melanin/µg protein/h) (tyrosinase; 0.094 w/v%) | Tyrosinase enzyme activity (µg melanin/µg protein/h) (tyrosinase; 0.188 w/v%) | Tyrosinase enzyme activity (µg melanin/µg protein/h) (tyrosinase; 0.375 w/v%) | Tyrosinase enzyme activity (µg melanin/µg protein/h) (tyrosinase; 0.750 w/v%) | Tyrosinase enzyme activity (µg melanin/µg protein/h) (tyrosinase; 1.500 w/v%) | Tyrosinase enzyme activity (µg melanin/µg protein/h) (tyrosinase; 3.000 w/v%) | tyrosinase-inhibiting effect (tyrosinase) | activity at 0.313 % [1] [%] | activity at 0.625 % [1] [%] | activity at 1.25 % [1] [%] | activity at 2.5 % [1] [%] | activity at 5 % [1] [%] | fibroblast-activating effect [1] | other results
O=C(CO[C@H]1O[C@H](CO)[C@@H](O)[C@H](O)[C@H]1O)[C@@H](O)[C@H](O)[C@H](O)CO [Trehalulose, 1-O-α-D-glucopyranosyl-D-fructose] | 0.251 ± 0.034 | 0.251 ± 0.051 | 0.244 ± 0.044 | 0.232 ± 0.028 | 0.197 ± 0.004 | 0.188 ± 0.004 | significant tyrosinase-inhibiting effect | 101 ± 2.4 | 104 ± 2.5 | 106.9 ± 0.8 | 112 ± 1.4 | 114 ± 5.8 | significant fibroblast-activating effect | viability at 0.125 % ([2]; Homo sapiens, Fibroblast, light or radiation study, 24 h, 0.125 w/v%, absorbance relative to UVB non-irradiated group = 100, n=4, read-out: Index (%)): 80.7 ± 2.7%; viability at 0.25 % ([2]; Homo sapiens, Fibroblast, light or radiation study, 24 h, 0.250 w/v%, absorbance relative to UVB non-irradiated group = 100, n=4, read-out: Index (%)): 82 ± 4.1%; viability at 0.5 % ([2]; Homo sapiens, Fibroblast, light or radiation study, 24 h, 0.500 w/v%, absorbance relative to UVB non-irradiated group = 100, n=4, read-out: Index (%)): 86.5 ± 1.3%; viability at 1 % ([2]; Homo sapiens, Fibroblast, light or radiation study, 24 h, 1.000 w/v%, absorbance relative to UVB non-irradiated group = 100, n=4, read-out: Index (%)): 93 ± 0.4%; viability at 2 % ([2]; Homo sapiens, Fibroblast, light or radiation study, 24 h, 2.000 w/v%, absorbance relative to UVB non-irradiated group = 100, n=4, read-out: Index (%)): 94.8 ± 1%; reducing effect of cell damage ([2]; Student's t-test): significant reducing effect of cell damage
O=C(CO)[C@@H](O)[C@H](O)[C@H](O)CO[C@H]1O[C@H](CO)[C@@H](O)[C@H](O)[C@H]1O [Isomaltulose, 6-O-α-D-glucopyranosyl-D-fructose] | 0.205 ± 0.004 | 0.208 ± 0.003 | 0.200 ± 0.006 | 0.196 ± 0.004 | 0.190 ± 0.003 | 0.184 ± 0.004 | significant tyrosinase-inhibiting effect | 101 ± 2 | 107 ± 4.4 | 111 ± 2.3 | 113 ± 2.1 | 112 | significant fibroblast-activating effect | viability at 0.013 % ([3]; Homo sapiens, Fibroblast, light or radiation study, 24 h, 0.013 w/v%, absorbance relative to UVB non-irradiated group = 100, n=4, read-out: Index (%)): 80 ± 1.8%; viability at 0.025 % ([3]; Homo sapiens, Fibroblast, light or radiation study, 24 h, 0.025 w/v%, absorbance relative to UVB non-irradiated group = 100, n=4, read-out: Index (%)): 83.7 ± 3.5%; viability at 0.05 % ([3]; Homo sapiens, Fibroblast, light or radiation study, 24 h, 0.050 w/v%, absorbance relative to UVB non-irradiated group = 100, n=4, read-out: Index (%)): 84.3 ± 1.1%; viability at 0.1 % ([3]; Homo sapiens, Fibroblast, light or radiation study, 24 h, 0.100 w/v%, absorbance relative to UVB non-irradiated group = 100, n=4, read-out: Index (%)): 86.2 ± 2.5%; viability at 0.2 % ([3]; Homo sapiens, Fibroblast, light or radiation study, 24 h, 0.200 w/v%, absorbance relative to UVB non-irradiated group = 100, n=4, read-out: Index (%)): 86.8 ± 2.9%; reducing effect of cell damage ([3]; Student's t-test): significant reducing effect of cell damage
